# Assay results from patent US20200093814A1, “COMBINATION THERAPY WITH AMIDINE SUBSTITUTED BETA-LACTAM COMPOUNDS AND BETA-LACTAMASE INHIBITORS FOR INFECTIONS WITH ANTIBIOTIC RESISTANT BACTERIAL STRAINS” (AiCuris GmbH & Co. KG, priority 2016, published 2020).
# Columns and labels:
# Type in all cases: cell-based
# Conditions in all cases: BLI where combined at 4 μg/mL
# [1] = test system: E. cloacae 58 (SHV-12, de-repressed AmpC)
# [2] = test system: K. pneumoniae NRZ-15601 (OXA-48, SHV-12); assay: MIC determination, broth microdilution (CLSI)
# Text: (§1) While the compounds of this invention were serially diluted as described above, a constant concentration of the β-lactamase inhibitor of […] was used.
# [3] = test system: K. pneumoniae 68 (SHV-5); assay: MIC determination, broth microdilution (CLSI)
# Text: as §1
# [4] = test system: E. coli 17 (CTX-M, CMY-2); assay: MIC determination, broth microdilution (CLSI)
# Text: as §1
# [5] = test system: E. coli J62-TEM-3 transconjugant (TEM-3); assay: MIC determination, broth microdilution (CLSI)
# Text: as §1
# [6] = test system: E. coli 72 (CTX-M); assay: MIC determination, broth microdilution (CLSI)
# Text: as §1
# [7] = test system: K. pneumoniae 79 (CTX-M); assay: MIC determination, broth microdilution (CLSI)
# Text: as §1
# [8] = test system: E. coli 121 (CTX-M); assay: MIC determination, broth microdilution (CLSI)
# Text: as §1
# [9] = test system: E. coli DSM 22315 (VEB-1); assay: MIC determination, broth microdilution (CLSI)
# Text: as §1
# [10] = test system: E. coli 128 (SHV-2a); assay: MIC determination, broth microdilution (CLSI)
# Text: as §1
# [11] = test system: E. coli 10 (TEM-20); assay: MIC determination, broth microdilution (CLSI)
# Text: as §1
# [12] = test system: K. pneumoniae 16/10 (OXA-48, CTX-M-15); assay: MIC determination, broth microdilution (CLSI)
# Text: as §1
# [13] = test system: K. pneumoniae NCTC 13440 (VIM-1, SHV-12); assay: MIC determination, broth microdilution (CLSI)
# Text: as §1
Compound,MIC [1] [µg/mL],MIC [2] [µg/mL],MIC [3] [µg/mL],MIC [4] [µg/mL],MIC [5] [µg/mL],MIC [6] [µg/mL],MIC [7] [µg/mL],MIC [8] [µg/mL],MIC [9] [µg/mL],MIC [10] [µg/mL],MIC [11] [µg/mL],MIC [12] [µg/mL],MIC [13] [µg/mL]
CC(C)(O/N=C(\C(=O)N[C@@H]1C(=O)N2C(C(=O)[O-])=C(C[n+]3ccccc3)CS[C@H]12)c1csc(N)n1)C(=O)O [ceftazidime],128,64,64,128,16,32,16,32,128,16,32,128,
aztreonam,,,128,128,8,128,32,64,64,8,64,,128
